Data set [1] in a line: Solubility of salt/crystal forms in 0.01N HCl over 24 hrs. It is filed as physicochemical. Conditions: slurry. How it is done:
(§1) An excess of solid material was stirred at 25° C. or 55° C. for 18-24 hrs in aqueous media, excipients or solvents as noted. At the appropriate time point, an aliquot of the sample was centrifuged. The supernatant was filtered through a PTFE syringe filter and analyzed by HPLC versus a standard curve. The solid was then analyzed by XRPD for identification of the form.

The nature of data set [2]: Relationship / interconversion between bismesylate crystalline forms. The format is physicochemical. From the text:
AMG 900 bismesylate salt crystalline From A was identified as a dihydrate; AMG 900 bismesylate salt crystalline From B was identified as a dihydrate; AMG 900 bismesylate salt crystalline From C was identified as a monohydrate; and AMG 900 bismesylate salt crystalline From D was identified as a monohydrate. […].

The nature of the next data set: Dog pK study. The format is in vivo. Conditions: dogs. The text has this:
To this end, a various crystalline forms of different pharmaceutically acceptable salts of AMG 900 were investigated and made.

The nature of data set [3]: Solubility studies in aqueous media, excipients or solvents (18-24 hrs, HPLC; solid form by XRPD). The settings on record: water. It is filed as physicochemical. As to the method: as §1
Data set [4] relates to stage IV solid endometrial cancerous tumor. The data set can be described thus: Human Ph I clinical trial, tumor response: endometrial tumor. The settings on record: same endometrial tumor; 30 mg once daily; week 16, eight cycles; CT, RECIST 1.1.
Text: FIGS. 31A and 31B are measurements of the same endometrial solid tumor depicted in FIGS. 30A and 30B, but with its size shown as measured alone the short axis by CT and calculated using RECIST 1.1.
In data set [5] the test system is p-Histone H3. As to the kind of experiment: p-Histone H3 in HeLa cells. Conditions: Homo sapiens, read-out: IC50 p-Histone H3.
For data set [6], the system named is p-Histone H3. As to the kind of experiment: p-Histone H3 in Jurkat cells. The settings on record: Homo sapiens, read-out: IC50 for p-Histone H3.

The IC50 is the concentration that inhibits the measured activity by half.

Consider `Cc1csc(-c2nnc(Nc3ccc(Oc4ncccc4-c4ccnc(N)n4)cc3)c3ccccc23)c1` [bismesylate dihydrate form A, N-(4-((3-(2-amino-4-pyrimidinyl)-2-pyridinyl)oxy)phenyl)-4-(4-methyl-2-thienyl)-1-phthalazinamine], for which, in data set [1], the “solubility versus AMG 900 free base crystalline form A” value is given as “significant improvement in solubility”. Moreover, the “form conversion over time” value in data set [2] (room temperature in a capped vial) is “converts to form B”.
In the case of `Cc1csc(-c2nnc(Nc3ccc(Oc4ncccc4-c4ccnc(N)n4)cc3)c3ccccc23)c1` [N-(4-((3-(2-amino-4-pyrimidinyl)-2-pyridinyl)oxy)phenyl)-4-(4-methyl-2-thienyl)-1-phthalazinamine], the “stability of the crystalline form” value in data set [2] is on record as “unstable”. For the same compound, in data set [2] (room temperature, normal humidity), the “form conversion at room temperature” value is recorded as “converts back to crystalline Form B”.
For `Cc1csc(-c2nnc(Nc3ccc(Oc4ncccc4-c4ccnc(N)n4)cc3)c3ccccc23)c1` [free base crystalline form A of AMG 900, N-(4-((3-(2-amino-4-pyrimidinyl)-2-pyridinyl)oxy)phenyl)-4-(4-methyl-2-thienyl)-1-phthalazinamine], the bioavailability in dogs result in the data set “Dog pK study” is listed as “low”. Moreover, the solubility in water entry in data set [3] was “poorly soluble”.
In the case of `Cc1csc(-c2nnc(Nc3ccc(Oc4ncccc4-c4ccnc(N)n4)cc3)c3ccccc23)c1` [bismesylate monohydrate form C, N-(4-((3-(2-amino-4-pyrimidinyl)-2-pyridinyl)oxy)phenyl)-4-(4-methyl-2-thienyl)-1-phthalazinamine], the “form conversion with an increase in humidity” value in data set [2] (relative humidity at or greater than 50%) is listed as “convert to the dihydrate form B”.
Regarding `Cc1csc(-c2nnc(Nc3ccc(Oc4ncccc4-c4ccnc(N)n4)cc3)c3ccccc23)c1` [AMG 900, N-(4-((3-(2-amino-4-pyrimidinyl)-2-pyridinyl)oxy)phenyl)-4-(4-methyl-2-thienyl)-1-phthalazinamine], the “reduction of short axis diameter” value in data set [4] is on record as “up to 40%”. In addition, the IC50 came out at 59 nM in the data set with p-Histone H3 [5] (1 h), 238 nM in the data set with p-Histone H3 [5], 66 nM with p-Histone H3 [6] (1 h) and 4 nM in the data set with p-Histone H3 [6] (24 h).

(Values after patent publication US10053452B2 (AMGEN INC., priority 2013, dated 2018).)
